From PubChem BioAssay (NCI)
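Briefly, cells in 96-well plates were exposed to five compound concentrations for 48 h, and endpoints were estimated by linear interpolation. At the TGI there is no net growth.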

Tests used:
Experiment in all cases: NCI-60 cell line screen, 48 h
SNB-19 CNS = tested on: SNB-19 CNS
CCRF-CEM leukemia = tested on: CCRF-CEM leukemia
ACHN renal = tested on: ACHN renal
CAKI-1 renal = tested on: CAKI-1 renal
LOX IMVI melanoma = tested on: LOX IMVI melanoma
HOP-92 NSCLC = tested on: HOP-92 NSCLC
MOLT-4 leukemia = tested on: MOLT-4 leukemia
MDA-MB-231 breast = tested on: MDA-MB-231 breast
EKVX NSCLC = tested on: EKVX NSCLC
HCC-2998 colon = tested on: HCC-2998 colon
IGROV1 ovarian = tested on: IGROV1 ovarian
786-0 renal = tested on: 786-0 renal
RXF 393 renal = tested on: RXF 393 renal
COLO 205 colon = tested on: COLO 205 colon
SR leukemia = tested on: SR leukemia
KM12 colon = tested on: KM12 colon
OVCAR-5 ovarian = tested on: OVCAR-5 ovarian
SK-MEL-28 melanoma = tested on: SK-MEL-28 melanoma
SNB-75 CNS = tested on: SNB-75 CNS
T-47D breast = tested on: T-47D breast
U251 CNS = tested on: U251 CNS
HCT-116 colon = tested on: HCT-116 colon
OVCAR-4 ovarian = tested on: OVCAR-4 ovarian
SN12C renal = tested on: SN12C renal
OVCAR-3 ovarian = tested on: OVCAR-3 ovarian
DU-145 prostate = tested on: DU-145 prostate
SF-295 CNS = tested on: SF-295 CNS
OVCAR-8 ovarian = tested on: OVCAR-8 ovarian
MDA-N = tested on: MDA-N
BT-549 breast = tested on: BT-549 breast
NCI-H23 lung = tested on: NCI-H23 lung
UACC-62 melanoma = tested on: UACC-62 melanoma
NCI/ADR-RES ovarian = tested on: NCI/ADR-RES ovarian
A498 renal = tested on: A498 renal
HOP-62 NSCLC = tested on: HOP-62 NSCLC
HS 578T breast = tested on: HS 578T breast
SW-620 colon = tested on: SW-620 colon
PC-3 prostate = tested on: PC-3 prostate
SK-OV-3 ovarian = tested on: SK-OV-3 ovarian
HT29 colon = tested on: HT29 colon
HL-60(TB) leukemia = tested on: HL-60(TB) leukemia
A549 NSCLC = tested on: A549 NSCLC
NCI-H522 lung = tested on: NCI-H522 lung
MALME-3M melanoma = tested on: MALME-3M melanoma
RPMI-8226 leukemia = tested on: RPMI-8226 leukemia
TK-10 renal = tested on: TK-10 renal
K-562 leukemia = tested on: K-562 leukemia
SK-MEL-5 melanoma = tested on: SK-MEL-5 melanoma
MDA-MB-435 = tested on: MDA-MB-435
MCF7 breast = tested on: MCF7 breast
UO-31 renal = tested on: UO-31 renal
HCT-15 colon = tested on: HCT-15 colon
NCI-H460 lung = tested on: NCI-H460 lung
SF-268 CNS = tested on: SF-268 CNS
NCI-H226 lung = tested on: NCI-H226 lung
M14 melanoma = tested on: M14 melanoma
SK-MEL-2 melanoma = tested on: SK-MEL-2 melanoma
SF-539 CNS = tested on: SF-539 CNS
UACC-257 melanoma = tested on: UACC-257 melanoma

Measured: TGI

O=C1CN(C(=O)C2CCCN2C(=O)C2CCCN2)C(=O)CN1 (stereo not drawn)
not listed: SK-MEL-2 melanoma | SF-539 CNS | UACC-257 melanoma
> 100 µM: all other assays above

O=C(O)COCC(=O)N(CCOCCN(Cc1ccccc1)C(=O)COCC(=O)O)Cc1ccccc1
not listed: SNB-75 CNS | OVCAR-4 ovarian | UO-31 renal
> 100 µM: all other assays above

Cc1nc(-c2cc3c(ccc4ccccc43)oc2=O)cs1
89.5 µM: HOP-92 NSCLC
75.2 µM: SNB-75 CNS
99.3 µM: HS 578T breast
57.8 µM: BT-549 breast
not listed: OVCAR-3 ovarian | NCI-H23 lung | A498 renal
> 100 µM: all other assays above
